Several values for one entry are separate records, joined by “and”; a condition that tells them apart may be missing. Equal values may be shown once. Read-outs that look alike come from different tables or passages of the source.
How the values were obtained:
Experiment in all cases: Inside-out patch-clamp inhibition of CFTR current by Inh-172
Type in all cases: cell-based
M348K-CFTR = target: T1, M348K-CFTR (Homo sapiens, UniProt P13569, M348K)
T1 construct: expressed in transfected cells; host or cells: CHO cells, pcDNA plasmid
T1 sequence (P13569 whole entry M348K): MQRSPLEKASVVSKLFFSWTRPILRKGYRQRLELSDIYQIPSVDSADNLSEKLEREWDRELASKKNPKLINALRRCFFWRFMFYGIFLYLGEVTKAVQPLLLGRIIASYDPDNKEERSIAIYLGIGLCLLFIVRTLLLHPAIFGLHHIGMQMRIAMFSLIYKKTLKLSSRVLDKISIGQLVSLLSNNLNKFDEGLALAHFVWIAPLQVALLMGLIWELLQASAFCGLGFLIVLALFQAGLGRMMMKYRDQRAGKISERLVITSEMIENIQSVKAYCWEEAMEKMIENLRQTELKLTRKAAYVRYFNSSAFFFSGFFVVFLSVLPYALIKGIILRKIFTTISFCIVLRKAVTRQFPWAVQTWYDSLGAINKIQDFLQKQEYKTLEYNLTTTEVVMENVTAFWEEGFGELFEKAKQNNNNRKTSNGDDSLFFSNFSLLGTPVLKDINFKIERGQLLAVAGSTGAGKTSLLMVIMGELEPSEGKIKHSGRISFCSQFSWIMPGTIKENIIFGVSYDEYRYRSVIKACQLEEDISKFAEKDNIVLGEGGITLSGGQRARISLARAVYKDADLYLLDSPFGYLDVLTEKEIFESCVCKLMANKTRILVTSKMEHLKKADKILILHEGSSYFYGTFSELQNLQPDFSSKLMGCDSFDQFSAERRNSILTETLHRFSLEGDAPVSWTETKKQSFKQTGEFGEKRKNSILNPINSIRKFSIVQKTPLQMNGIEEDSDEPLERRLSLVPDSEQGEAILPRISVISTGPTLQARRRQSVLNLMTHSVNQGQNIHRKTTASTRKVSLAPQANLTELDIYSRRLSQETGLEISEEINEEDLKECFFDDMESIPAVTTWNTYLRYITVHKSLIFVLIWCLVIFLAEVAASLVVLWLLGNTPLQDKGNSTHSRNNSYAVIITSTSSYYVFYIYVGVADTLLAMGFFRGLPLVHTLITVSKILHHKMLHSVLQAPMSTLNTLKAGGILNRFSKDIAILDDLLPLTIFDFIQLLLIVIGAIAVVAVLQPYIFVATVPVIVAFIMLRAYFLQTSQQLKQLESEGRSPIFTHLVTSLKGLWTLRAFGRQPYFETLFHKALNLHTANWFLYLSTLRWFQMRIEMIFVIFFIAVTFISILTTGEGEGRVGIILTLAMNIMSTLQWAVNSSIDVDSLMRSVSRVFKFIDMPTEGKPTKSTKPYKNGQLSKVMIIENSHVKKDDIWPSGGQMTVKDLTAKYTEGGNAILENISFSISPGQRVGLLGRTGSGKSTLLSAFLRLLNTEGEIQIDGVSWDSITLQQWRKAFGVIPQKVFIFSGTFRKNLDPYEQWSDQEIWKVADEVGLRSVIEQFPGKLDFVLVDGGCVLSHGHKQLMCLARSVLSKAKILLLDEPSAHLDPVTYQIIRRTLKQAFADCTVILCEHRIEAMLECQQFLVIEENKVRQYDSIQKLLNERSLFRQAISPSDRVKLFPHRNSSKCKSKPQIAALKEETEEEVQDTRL
Protocol: (§1) CHO cells were grown at 37 °C in Dulbecco’s modified Eagle’s medium supplemented with 10% (vol/vol) fetal bovine serum (Sigma-Aldrich, St. Louis, MO). pcDNA plasmids carrying the desired CFTR construct were transfected to CHO cells using PolyFect transfection reagent (Qiagen, Hilden, Germany) together with green fluorescence protein (GFP) cDNA (pEGFP-C3, Takara Bio, Shiga, Japan) that helps identify expression of CFTR. Cells were first incubated with the transfection reagents at 37 °C for 6-12 hours on sterile glass chips in 35-mm tissue culture dishes before transferred to 27 °C for incubation for 2–7 days. Primers for mutations were ordered from Integrated DNA Technologies (Coralville, IA) and were summarized in Supplementary Data. All CFTR mutants were prepared with QuikChange XL kit (Agilent, Santa Clara, CA) and sequenced at the DNA Core facility at University of Missouri-Columbia.
(§2) Patch-clamp pipettes were made from borosilicate capillary glass using a two-stage vertical puller (PP-81; Narishige, Amityville, NY). The pipette tips were fire polished with a homemade microforge to yield a pipette resistance of 2–5 MΩ when filled with a pipette solution containing (in mM): 140 NMDG-Cl (N-methyl-D-glucamine-chloride), 5 CaCl2, 2 MgCl2, and 10 HEPES, pH 7.4. For recordings, transfected cells on glass chips were transferred into a continuously perfused chamber on the stage of an inverted microscope (IX51; Olympus, Tokyo, Japan) with the perfusing solution containing (in mM): 150 NMDG-Cl, 2 MgCl2, 10 EGTA, 8 Tris, and 10 HEPES, pH 7.4. The membrane patch was excised to an inside-out configuration with a seal resistance >40 GΩ. CFTR currents were recorded with an amplifier (EPC9; HEKA, Holliston, MA), filtered through an eight-pole Bessel filter (LPF-8; Warner Instruments, Hamden, CT) at 100 Hz and digitized to a computer at a sampling rate of 500 Hz with Pulse software (version 8.53; HEKA). The membrane potential was held at −30 mV. Solution exchange was achieved by a fast solution change system (SF-77B; Warner Instruments). Inh-172 was obtained from the CFTR Chemical Compound Program supported by the Cystic Fibrosis Foundation. All experiments were performed at room temperature.
(§3) The steady state mean currents were measured in the Igor Pro software (version 8.0; WaveMetrics). The mean baseline currents were subtracted from the steady state mean currents before the data were used to determine the degrees of inhibition. The degrees of inhibition by CFTR inhibitor 172 were calculated based on the equation:1 %inhibition=1−IInh−172/I0X100% where I0 and Iinh−172 represent uninhibited and inhibited currents, respectively. The IC50 and Hill coefficients were obtained by fitting percent inhibition as a function of [Inh-172] with the Hill equation:2 %inhibition=base+(max−base)/1+xhalf/x^rate where max and base represent the […] percent inhibition by Inh-172, x represents the concentration of Inh-172, and the rate is the Hill coefficient. The estimated IC50 (xhalf) and Hill coefficients are listed in Table 1 as mean ± standard deviation. Each patch-clamp recording was made from a separate cell.

[1] = target: T2, h-pTM8-h-CFTR (human CFTR, three TM8 amino acids replaced with pig's) (Homo sapiens, UniProt P13569, F931L/M929L/T925G); settings: for inhibition at 1 µM: 1000 nM Inh-172; for inhibition at 5 µM: 5000 nM Inh-172; for inhibition at 10 µM: 10000 nM Inh-172
T2 construct: expressed in transfected cells; host or cells: CHO cells, pcDNA plasmid
T2 sequence (P13569 whole entry T925G/M929L/F931L): as the sequence (P13569 whole entry M348K) above, with K348M, T925G, M929L, F931L counted along it
Protocol: as §1, §2, §3

[2] = target: T3, h-pTMD1-h-CFTR (human CFTR with pig CFTR's TMD1) (Homo sapiens, UniProt P13569, A209T/D426N/E115A/E407K/F315L/F87I/G228A/I125V/I215L/I231V/I328L/I332M/L145P/N418S/N445S/P41S/Q39H/R242K/S256N/T421I/V11I/V12F/V43S)
T3 construct: expressed in transfected cells; host or cells: CHO cells, pcDNA plasmid
T3 sequence (P13569 1-1480 with the stated changes): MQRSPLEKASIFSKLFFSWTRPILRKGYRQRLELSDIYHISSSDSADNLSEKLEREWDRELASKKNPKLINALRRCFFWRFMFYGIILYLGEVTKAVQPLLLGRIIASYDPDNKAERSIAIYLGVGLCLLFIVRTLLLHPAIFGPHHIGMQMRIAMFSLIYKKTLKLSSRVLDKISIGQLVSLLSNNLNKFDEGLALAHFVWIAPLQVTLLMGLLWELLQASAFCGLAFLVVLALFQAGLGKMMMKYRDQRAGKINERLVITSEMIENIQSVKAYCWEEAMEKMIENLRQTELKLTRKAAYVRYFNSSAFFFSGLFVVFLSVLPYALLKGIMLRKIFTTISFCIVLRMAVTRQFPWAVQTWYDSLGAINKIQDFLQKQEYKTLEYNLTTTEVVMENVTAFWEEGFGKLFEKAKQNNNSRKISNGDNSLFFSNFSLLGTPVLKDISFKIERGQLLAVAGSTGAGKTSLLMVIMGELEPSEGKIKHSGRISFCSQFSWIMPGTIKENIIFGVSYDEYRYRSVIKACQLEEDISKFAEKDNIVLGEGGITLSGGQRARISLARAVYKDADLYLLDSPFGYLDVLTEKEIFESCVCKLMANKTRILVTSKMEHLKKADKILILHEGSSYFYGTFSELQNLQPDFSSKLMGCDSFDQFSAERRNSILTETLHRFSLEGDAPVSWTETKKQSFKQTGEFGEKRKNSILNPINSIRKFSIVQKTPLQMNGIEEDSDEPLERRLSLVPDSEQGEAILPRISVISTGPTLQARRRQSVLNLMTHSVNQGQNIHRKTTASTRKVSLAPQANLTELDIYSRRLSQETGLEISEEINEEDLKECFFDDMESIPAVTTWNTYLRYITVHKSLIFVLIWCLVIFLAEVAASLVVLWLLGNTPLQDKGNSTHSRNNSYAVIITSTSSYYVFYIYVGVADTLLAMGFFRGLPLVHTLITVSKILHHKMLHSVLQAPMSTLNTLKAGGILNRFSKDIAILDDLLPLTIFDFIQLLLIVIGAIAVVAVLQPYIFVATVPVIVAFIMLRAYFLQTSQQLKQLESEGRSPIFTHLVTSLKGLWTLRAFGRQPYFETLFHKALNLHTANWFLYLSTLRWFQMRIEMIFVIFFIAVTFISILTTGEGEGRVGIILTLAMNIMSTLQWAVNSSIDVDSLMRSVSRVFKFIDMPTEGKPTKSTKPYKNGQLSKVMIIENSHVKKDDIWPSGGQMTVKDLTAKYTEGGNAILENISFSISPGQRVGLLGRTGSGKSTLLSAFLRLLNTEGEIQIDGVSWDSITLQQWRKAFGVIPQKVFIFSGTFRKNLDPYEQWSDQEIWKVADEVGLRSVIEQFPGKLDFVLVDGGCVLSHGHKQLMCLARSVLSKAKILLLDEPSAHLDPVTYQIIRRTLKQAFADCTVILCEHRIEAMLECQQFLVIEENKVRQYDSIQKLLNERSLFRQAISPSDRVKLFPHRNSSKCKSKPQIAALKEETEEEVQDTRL
Protocol: as §1, §2, §3

W1145A-CFTR = target: T4, W1145A-CFTR (Homo sapiens, UniProt P13569, W1145A)
T4 construct: expressed in transfected cells; host or cells: CHO cells, pcDNA plasmid
T4 sequence (P13569 whole entry W1145A): as the sequence (P13569 whole entry M348K) above, with K348M, W1145A counted along it
Protocol: as §1, §2, §3

[3] = 100 nM Inh-172, read-out: percent inhibition of current, Mean
[4] = 500 nM Inh-172, read-out: percent inhibition of current, Mean
[5] = 1000 nM Inh-172, read-out: percent inhibition of current, Mean
[6] = 1000 nM Inh-172, read-out: percent inhibition of current, individual cell
[7] = 5000 nM Inh-172, read-out: percent inhibition of current, Mean
[8] = 5000 nM Inh-172, read-out: percent inhibition of current, individual cell
[9] = 10000 nM Inh-172, read-out: percent inhibition of current, Mean
[10] = 10000 nM Inh-172, read-out: percent inhibition of current, individual cell
[11] = read-out: percent inhibition of current, Mean
[12] = read-out: percent inhibition of current, individual cell
[13] = 500 nM Inh-172, read-out: percent inhibition of current, individual cell

**Q.** `O=C(O)c1ccc(/C=C2\SC(=S)N(c3cccc(C(F)(F)F)c3)C2=O)cc1` [Inh-172, CFTRinh-172] was tested. Which “percent inhibition of current, individual cell” value (“percent inhibition of current” for short) (M348K-CFTR; 100 nM Inh-172) did it give?
**A.** 10.0 and 17.0 and 1.0 and 23.0

**Q.** And the inhibition at 0.1 µM (M348K-CFTR; [3])?
**A.** 12.8%

**Q.** And the “percent inhibition of current” value (M348K-CFTR; 250 nM Inh-172)?
**A.** 31.0 and 36.0 and 35.0

**Q.** And the inhibition at 0.25 µM (M348K-CFTR; 250 nM Inh-172, read-out: percent inhibition of current, Mean)?
**A.** 35.3%

**Q.** And the inhibition at 0.25 µM (M348K-CFTR; 250 nM Inh-172, read-out: percent inhibition of current, individual cell)?
**A.** 39%

**Q.** What about the “percent inhibition of current” value (M348K-CFTR; 500 nM Inh-172) of the same molecule?
**A.** 50.0 and 41.0 and 62.0 and 56.0 and 63.0

**Q.** What about the inhibition at 0.5 µM (M348K-CFTR; [4]) of the same molecule?
**A.** 54.4%

**Q.** And the “percent inhibition of current” value (M348K-CFTR; 1000 nM Inh-172)?
**A.** 61.0 and 64.0 and 60.0

**Q.** What about the inhibition at 1 µM (M348K-CFTR; [5]) of the same molecule?
**A.** 64.2%

**Q.** What about the inhibition at 1 µM (M348K-CFTR; [6]) of the same molecule?
**A.** 68%

**Q.** And the “percent inhibition of current” value (M348K-CFTR; 5000 nM Inh-172)?
**A.** 94.0 and 84.0 and 81.0

**Q.** What about the inhibition at 5 µM (M348K-CFTR; [7]) of the same molecule?
**A.** 86.6%

**Q.** And the inhibition at 5 µM (M348K-CFTR; [8])?
**A.** 90%

**Q.** What about the “percent inhibition of current” value (M348K-CFTR; 10000 nM Inh-172) of the same molecule?
**A.** 89.0 and 83.0

**Q.** What about the inhibition at 10 µM (M348K-CFTR; [9]) of the same molecule?
**A.** 88%

**Q.** And the inhibition at 10 µM (M348K-CFTR; [10])?
**A.** 92%

**Q.** What about the “Hill Coefficient” value (M348K-CFTR; M348K) of the same molecule?
**A.** 0.90 ± 0.10

**Q.** What about the IC50 (M348K-CFTR; M348K) of the same molecule?
**A.** 520 ± 60 nM

**Q.** What about the inhibition at 0.1 µM [1, 3] of the same molecule?
**A.** 18.4%

**Q.** And the inhibition at 0.5 µM [1, 4]?
**A.** 46.3%

**Q.** And the inhibition at 1 µM [1, 11]?
**A.** 58.5%

**Q.** And the inhibition at 1 µM [1, 12]?
**A.** 68%

**Q.** And the inhibition at 5 µM [1, 11]?
**A.** 83.3%

**Q.** And the inhibition at 5 µM [1, 12]?
**A.** 89%

**Q.** What about the inhibition at 10 µM [1, 11] of the same molecule?
**A.** 91%

**Q.** And the inhibition at 10 µM [1, 12]?
**A.** 93%

**Q.** And the “Hill Coefficient” value ([1]; h-pTM8-h)?
**A.** 0.80 ± 0.02

**Q.** And the IC50 ([1]; h-pTM8-h)?
**A.** 640 ± 20 nM

**Q.** What about the “percent inhibition of current” value ([2]; 50 nM Inh-172) of the same molecule?
**A.** 45.0 and 25.0

**Q.** What about the inhibition at 0.05 µM ([2]; 50 nM Inh-172, read-out: percent inhibition of current, Mean) of the same molecule?
**A.** 35.8%

**Q.** And the inhibition at 0.05 µM ([2]; 50 nM Inh-172, read-out: percent inhibition of current, individual cell)?
**A.** 34%

**Q.** What about the “percent inhibition of current” value ([2]; 100 nM Inh-172) of the same molecule?
**A.** 51.0 and 37.0 and 50.0

**Q.** And the inhibition at 0.1 µM [2, 3]?
**A.** 44.3%

**Q.** What about the inhibition at 0.1 µM ([2]; 100 nM Inh-172, read-out: percent inhibition of current, individual cell) of the same molecule?
**A.** 39%

**Q.** And the “percent inhibition of current” value ([2]; 500 nM Inh-172)?
**A.** 86.0 and 76.0

**Q.** And the inhibition at 0.5 µM [2, 4]?
**A.** 81.8%

**Q.** And the inhibition at 0.5 µM [2, 13]?
**A.** 79%

**Q.** What about the “percent inhibition of current” value ([2]; 1000 nM Inh-172) of the same molecule?
**A.** 94.0 and 89.0

**Q.** What about the inhibition at 1 µM [2, 5] of the same molecule?
**A.** 92%

**Q.** And the inhibition at 1 µM [2, 6]?
**A.** 91%

**Q.** What about the “percent inhibition of current” value ([2]; 10000 nM Inh-172) of the same molecule?
**A.** 100.0

**Q.** What about the inhibition at 10 µM [2, 9] of the same molecule?
**A.** 99.8%

**Q.** What about the inhibition at 10 µM [2, 10] of the same molecule?
**A.** 99%

**Q.** And the “Hill Coefficient” value ([2]; h-pTMD1-h)?
**A.** 0.98 ± 0.10

**Q.** What about the IC50 ([2]; h-pTMD1-h) of the same molecule?
**A.** 110 ± 10 nM

**Q.** And the “percent inhibition of current” value (W1145A-CFTR; 100 nM Inh-172)?
**A.** 2 and 8 and 0.5

**Q.** And the inhibition at 0.1 µM (W1145A-CFTR; [3])?
**A.** 3.5%

**Q.** And the “percent inhibition of current” value (W1145A-CFTR; 500 nM Inh-172)?
**A.** 32 and 33

**Q.** And the inhibition at 0.5 µM (W1145A-CFTR; [4])?
**A.** 37.3%

**Q.** What about the inhibition at 0.5 µM (W1145A-CFTR; [13]) of the same molecule?
**A.** 42%

**Q.** And the “percent inhibition of current” value (W1145A-CFTR; 1000 nM Inh-172)?
**A.** 60 and 69 and 44 and 52 and 49

**Q.** And the inhibition at 1 µM (W1145A-CFTR; [5])?
**A.** 54.8%

**Q.** What about the “percent inhibition of current” value (W1145A-CFTR; 5000 nM Inh-172) of the same molecule?
**A.** 89 and 75 and 91 and 80

**Q.** What about the inhibition at 5 µM (W1145A-CFTR; [7]) of the same molecule?
**A.** 85%

**Q.** What about the inhibition at 5 µM (W1145A-CFTR; [8]) of the same molecule?
**A.** 90%

**Q.** And the “percent inhibition of current” value (W1145A-CFTR; 10000 nM Inh-172)?
**A.** 86 and 88

**Q.** And the inhibition at 10 µM (W1145A-CFTR; [9])?
**A.** 89.8%

**Q.** What about the inhibition at 10 µM (W1145A-CFTR; [10]) of the same molecule?
**A.** 95%

**Q.** What about the “Hill Coefficient” value (W1145A-CFTR; W1145A) of the same molecule?
**A.** 1.08 ± 0.12

**Q.** What about the IC50 (W1145A-CFTR; W1145A) of the same molecule?
**A.** 880 ± 90 nM

From paper PMC11303713, “Allosteric inhibition of CFTR gating by CFTRinh-172 binding in the pore” (Nature Communications, 2024)
